The compounds below were run on NF-κB mediated transcription (assay: NF-κB driven β-lactamase reporter assay in ECV-304 NF-κB.βlaZ cells (AURORA CCF2 fluorescence)). Settings: 10 μM compound; ECV-304 NF-κB.βlaZ cells stimulated with 10 ng/mL TNF-α or 100 pg/mL IL-1β, 6 hours at 37° C.; inhibition of maximum blue/green ratio; 10 µM.
Format: cell-based, human
Source text: Introduction: Described below is an in vitro, cell-based, high throughput screening assay that reliably identifies inhibitors of NF-κB mediated transcription.
The assay takes advantage of AURORA (Aurora Bioscience Corporation, La Jolla, Calif.) fluorescence technology. Endothelial cell vein-304 (ECV-304) cells, an endothelial-like immortalized cell type, may be stably transfected with a plasmid vector containing the cDNA for the enzyme β-lactamase (under the control of a basal promoter, Stratagene pNFκB-luc vector) and 5 copies of an human immunodeficiency virus-1 (HIV-1) NF-κB binding site. ECV-304 cells are described by Takahashi K. et al. in Spontaneous Transformation and Immobilization of Human Endothelial Cells, In Vitro Cell. Dev. Biol. 1990;25:265-274. Activation of NF-κB in ECV-304 by cytokines such as TNF-α or interleuken-1 beta (IL-1β) results in the production of β-lactamase, which cleaves a green fluorescent substrate (excitation/emission wavelengths 395 nm1530 nm) to yield a blue fluorescent product (excitation/emission wavelengths 395 nm/460 nm). Visually, the uncleaved green fluorescent substrate is sequestered intracellularly and emits green fluorescence, while the cleaved product emits blue fluorescence. Fluorescence is quantitated spectrophotometrically, and the spectral intensity of blue fluorescence versus green fluorescence can be used to calculate the degree of activation of NF-κB.
The assay was performed as outlined here and described in detail below. ECV-304 cells permanently transfected with the NF-κB driven β-lactamase gene (ECV-304 NF-κB.βlaZ) were plated in clear-bottom, black 96-well plates (1.25×10^4 cells/well) in media-199 (M-199) media containing 2% fetal bovine serum (FBS). […] The AURORA fluorescent disclosing reagent was then added. After one additional hour, the plates were read in a fluorometer at the blue 395 nm/460 nm (excitation/emission) and green 395 nm/530 nm wavelengths. Then the blue/green emission ratio was calculated. […] An IC50 for said sulfonylaminocarbonyl derivative was determined from a dose-response curve. This assay was designed to be optionally run in either high or low throughput screening modes.
Five copies of the HIV-1 NF-κB binding site (5′-[…]-3′) along with a TATA box were inserted into the EcorRI/BamHI sites of plasmid pMCRBlaZ to create plasmid p5×KBBlaZ, which procedure is illustrated in Scheme 1 below. [formula]
Cells were selected for antibiotic resistance with Zeocin for approximately 2 weeks. After the stable population had been expanded to a significant number of cells, it was stimulated with IL-1β and stained with AURORA CCF2 dye, a membrane permeant, intracellularly-trapped, fluorescent substrate. Cells that fluoresced blue (indicating a positive response of the NF-κB/β-lactamase reporter to stimulation by IL-1β) in the stimulated/stained population were then sorted by flow cytometry into a pool. The pool was expanded and stained with CCF2, and then the cells that fluoresced green from this unstimulated population (indicating a low background of the NF-κB/β-lactamase reporter construct) were cloned by flow cytometry after adding 1 cell per well in 96-well plates. Clones were allowed to expand. Each cloned cell line was then examined for fold stimulation after stimulation with IL-1β using a CCF2 reporter assay, and these stimulated cells were compared to unstimulated cells.
Cells: ECV-304 NF-κB β-Lactamase clone 1E8
Inhibitors: Prepared stock solutions of aminosulfonyl derivatives at 10 mM concentration in DMSO;
c) Added 10 μL of B into appropriate well in assay plate (the final concentration of drug is 10 μM), and […]

`CCCCCCCCCCCCOC(=O)NS(=O)(=O)Nc1c(C(C)C)cccc1C(C)C` [Example 250, Carbamic acid, [[[2,6-bis(1-methylethyl)phenyl]amino]sulfonyl]-, dodecyl ester] was tested, and the “Percent Inhibition at 10 μM” value was less than 10%.

Same assay, conditions: Homo sapiens, ECV-304, 6 h, 10 μM compound; ECV-304 NF-κB.βlaZ cells stimulated with 10 ng/mL TNF-α or 100 pg/mL IL-1β, 6 hours at 37° C.; inhibition of maximum blue/green ratio; read-out: Percent Inhibition at 10 μM

First: CC(C)c1cccc(C(C)C)c1OS(=O)(=O)NC(=O)OC1[C@H](C(C)C)CCC[C@H]1C(C)C [Example 142, Carbamic acid, [[2,6-bis(1-methylethyl)phenoxy]sulfonyl]-, (2S,6S)-2,6-bis(1-methylethyl)cyclohexyl ester]
Second: CC1CCC(C(C)C)C(OC(=O)NS(=O)(=O)Oc2c(C(C)C)cccc2C(C)C)C1 (centres unmarked) [Example 138, Carbamic acid, [[2,6-bis(1-methylethyl)phenoxy]sulfonyl]-, 5-methyl-2-(1-methylethyl)cyclohexyl ester]
The inhibition at 10 µM of the first is lower: 53.9% for the first, 66.2% for the second.

First: COc1cc(OC)c(OS(=O)(=O)NC(=O)Cc2c(C(C)C)cc(C(C)C)cc2C(C)C)c(OC)c1 [Example 189, [(2,4,6-Triisopropyl-phenyl)-acetyl]-sulfamic acid 2,4,6-trimethoxy-phenyl ester]
Second: CC(C)c1cc(C(C)C)c(CC(=O)NS(=O)(=O)Oc2c(C(C)C)cc(CO)cc2C(C)C)c(C(C)C)c1 [Example 233, [(2,4,6-Triisopropyl-phenyl)-acetyl]-sulfamic acid 4-hydroxymethyl-2,6-diisopropyl-phenyl ester]
The inhibition at 10 µM of the first is lower: 15.1% for the first, 76.9% for the second.

First: CC(C)c1cc(C(C)C)c(CC(=O)NS(=O)(=O)Oc2c(C(C)C)cc(NC(=O)CNC(=O)OC(C)(C)C)cc2C(C)C)c(C(C)C)c1 [Example 198, [(3,5-Diisopropyl-4-{[(2,4,6-triisopropyl-phenyl)-acetyl]sulfamoyloxy}-phenylcarbamoyl)-methyl]-carbamic acid tert-butyl ester]
Second: CC(C)c1cc(C(C)C)c(CC(=O)NS(=O)(=O)Oc2c(C(C)C)cc(C#N)cc2C(C)C)c(C(C)C)c1 [Example 212, [(2,4,6-Triisopropyl-phenyl)-acetyl]-sulfamic acid 4-cyano-2,6-diisopropyl-phenyl ester]
The inhibition at 10 µM of the first is higher: 75.8% for the first, 60.2% for the second.

Going from `CC(C)c1cccc(C(C)C)c1OS(=O)(=O)NC(=O)C1c2ccccc2Oc2ccccc21` [Example 173, (9H-Xanthene-9-carbonyl)-sulfamic acid 2,6-diisopropyl-phenyl ester] to `CC(C)c1cccc(C(C)C)c1OS(=O)(=O)NC(=O)C(C)c1ccccc1` (centres unmarked) [Example 159, (2-Phenyl-propionyl)-sulfamic acid 2,6-diisopropyl-phenyl ester], the inhibition at 10 µM falls from 36.9% to 10.1%.

Compared with `CCCCCCCCCCCCCCCCC(C)S(=O)(=O)NC(=O)Nc1c(C(C)C)cccc1C(C)C` (centres unmarked) [Example 246, N-[2,6-bis(1-methylethyl)phenyl]-N′-(2-octadecylsulfonyl)urea], `CCCCCCCCCCCCCCN(C)S(=O)(=O)NC(=O)Nc1c(C(C)C)cccc1C(C)C` [Example 84, Urea, N-[2,6-bis(1-methylethyl)phenyl]-N′-[(methyltetradecylamino)-sulfonyl]-] is higher in inhibition at 10 µM: less than 10% for the first, 44.8% for the second.

Compared with `CC(C)c1cc(C(C)C)c(CC(=O)NS(=O)(=O)Oc2c(C(C)C)cc(NC(=S)Nc3cc(Cl)cc(Cl)c3)cc2C(C)C)c(C(C)C)c1` [Example 235, [(2,4,6-Triisopropyl-phenyl)-acetyl]-sulfamic acid 4-[3-(3,5-dichloro-phenyl)-thioureido]-2,6-diisopropyl-phenyl ester], `CC(C)c1cccc(C(C)C)c1NC(=O)NS(=O)(=O)N(C(C)C)C(C)(C)C` [Example 82, Urea, N-[2,6-bis(1-methylethyl)phenyl]-N′-[[(1,1-dimethylethyl)(1-methylethyl)-amino]sulfonyl]-] is lower in inhibition at 10 µM: 146% for the first, less than 10% for the second.

First: CCCCCCCCCCCCOC(=O)NS(=O)(=O)Oc1c(C(C)C)cccc1C(C)C [Example 55, Carbamic acid, [[2,6-bis(1-methylethyl)phenoxy]sulfonyl]-, dodecyl ester]
Second: CCCCCCCCCCCCOS(=O)(=O)NC(=O)Sc1c(C(C)C)cccc1C(C)C [Example 93, Carbamothioic acid, [(dodecyloxy)sulfonyl]-, S-[2,6-bis(1-methylethyl)-phenyl] ester]
The inhibition at 10 µM of the first is higher: 55.1% for the first, 14.5% for the second.

`CC(C)c1cccc(C(C)C)c1NC(=O)NS(=O)(=O)N(CCCN(C)C)CCCN(C)C` [Example 37, N-[[bis[3-(dimethylamino)propyl]amino]sulfonyl]-N′-[2,6-bis(1-methylethyl)phenyl]-urea] and `CCCCCCCCC(C)S(=O)(=O)NC(=O)Nc1c(C(C)C)cccc1C(C)C` (centres unmarked) [Example 244, N-[2,6-bis(1-methylethyl)phenyl]-N′-(2-decylsulfonyl)urea] cannot be ordered by inhibition at 10 µM: less than 10% for the first, less than 10% for the second.

Same assay, conditions: Homo sapiens; 10 μM compound; ECV-304 NF-κB.βlaZ cells stimulated with 10 ng/mL TNF-α or 100 pg/mL IL-1β, 6 hours at 37° C.; inhibition of maximum blue/green ratio; read-out: Percent Inhibition at 10 μM

Going from `Cc1cc(C(C)(C)C)c(OC(=O)NS(=O)(=O)N(CCCN(C)C)CCCN(C)C)c(C(C)(C)C)c1` [Example 40, Carbamic acid, [[bis[3-(dimethylamino)propyl]amino]sulfonyl]-, 2,6-bis(1,1-dimethylethyl)-4-methylphenyl ester] to `CC(C)(C)c1cccc(C(C)(C)C)c1OC(=O)NS(=O)(=O)N(Cc1ccccc1)Cc1ccccc1` [Example 24, Carbamic acid, [[bis(phenylmethyl)amino]sulfonyl]-, 2,6-bis(1,1-dimethylethyl)-phenyl ester], the inhibition at 10 µM rises from less than 10% to 31%.

`CCCCCCCCN(C)S(=O)(=O)NC(=O)Oc1c(C(C)C)cccc1C(C)C` [Example 87, Carbamic acid, [(methyloctylamino)sulfonyl]-, 2,6-bis(1-methylethyl)-phenyl ester] and `CC(C)c1cccc(C(C)C)c1OC(=O)NS(=O)(=O)Nc1ccccc1` [Example 13, Carbamic acid, [(phenylamino)sulfonyl]-, 2,6-bis(1-methylethyl)phenyl ester] cannot be ordered by inhibition at 10 µM: less than 10% for the first, less than 10% for the second.

Going from `CC(C)c1cccc(C(C)C)c1OC(=O)NS(=O)(=O)Oc1c(F)cccc1F` [Example 103, Carbamic acid, [(2,6-difluorophenoxy)sulfonyl]-, 2,6-bis(1-methylethyl)-phenyl ester] to `CC(C)c1cc([N+](=O)[O-])cc(C(C)C)c1OC(=O)NS(=O)(=O)Oc1c(C(C)C)cccc1C(C)C` [Example 110, Carbamic acid, [[2,6-bis(1-methylethyl)phenoxy]sulfonyl]-, 2,6-bis(1-methylethyl)-4-nitrophenyl ester], the inhibition at 10 µM rises from less than 10% to 15.5%.

Compared with `CC(C)c1cc(C(C)(C)C)cc(C(C)C)c1OC(=O)NS(=O)(=O)Oc1c(C(C)C)cccc1C(C)C` [Example 143, Carbamic acid, [[2,6-bis(1-methylethyl)phenoxy]sulfonyl]-, 4-(1,1-dimethylethyl)-2,6-bis(1-methylethyl)phenyl ester], `CC(C)c1cccc(C(C)C)c1OS(=O)(=O)NC(=O)Oc1c(C(C)(C)C)cc(SSc2cc(C(C)(C)C)c(O)c(C(C)(C)C)c2)cc1C(C)(C)C` [Example 128, Carbamic acid, [[2,6-bis(1-methylethyl)phenoxy]sulfonyl]-, 4-[[3,5-bis(1,1-dimethylethyl)-4-hydroxyphenyl]dithio]-2,6-bis(1,1-dimethylethyl)phenyl ester] is lower in inhibition at 10 µM: 65.8% for the first, less than 10% for the second.

In the case of `CC(C)(C)c1cccc(C(C)(C)C)c1OC(=O)NS(=O)(=O)Oc1c(C(C)(C)C)cccc1C(C)(C)C` [Example 100, Carbamic acid, [[2,6-bis(1,1-dimethylethyl)phenoxy]sulfonyl]-, 2,6-bis(1,1-dimethylethyl)phenyl ester], the inhibition at 10 µM is reported as 50%.

Reference: patent US20020183384A1, “Methods of treating nuclear factor-kappa B mediated diseases and disorders” (priority 2001, published 2002)
